Consider one compound from publication PMC11614538, “The proline-rich antimicrobial peptide B7-005: low bacterial resistance, safe for human cells and effective in zebrafish embryo bacteraemia model” (Open Biology, 2024).

Molecules are shown by their SMILES. Residues, ends and D or L forms follow the SMILES beside them. Some results are limits rather than exact numbers.

The subject of one data set is E. coli ATCC 25922. Kind of data set: MIC against E. coli ATCC 25922 in the presence of human serum. Type of data set: cell-based, Escherichia coli. On the procedure:
Escherichia coli ATCC 25922 was purchased from the American Type Culture Collection (ATCC) (Manassas, Virginia, USA) and stored at −80°C as glycerol stock until use. Bacterial cultures were grown overnight in sterile Müller–Hinton broth (MHB) (Difco Inc.) at 37°C under agitation (140 r.p.m.). The next day, the cultures were diluted 1 : 30 in new MHB and incubated as described above for about 2 h (mean logarithmic phase) until they reached an optical density at 600 nm of about 0.3 and then diluted in fresh MHB to the desired concentrations.
The effects of human serum on the antimicrobial activity of B7-005 were assessed by performing a minimum inhibitory concentration (MIC) assay with some modifications. Non-heat-inactivated human serum (Merk Life Science S.r.l., USA) was diluted to 50%, 40%, 30%, 25%, and 20% (v/v) in MHB and the solutions were aliquoted into the wells of a round-bottomed 96-well microtitre plate (Sarstedt, Milan, Italy). Samples with no serum were used for comparison. B7-005 was diluted in MHB added with the proper amount of serum to a concentration of 128 μM, added to the first column of the plate and serially diluted twofold in MHB, added with the proper amount of serum, in the subsequent wells in a final volume of 50 μl. Then 50 μl of a mid-log suspension of 5 × 10^5 CFU ml^−1 E. coli ATCC 25922 cells prepared in MHB added with the proper amount of serum was added to each well of the plate, halving the final concentration of bacteria and peptide. The plate was incubated at 37°C for 18 h. The MIC value was calculated as the lowest concentration of the compound resulting in complete inhibition of visible bacterial growth. MIC values were determined by performing at least three independent experiments (n ≥ 3).

For a further data set, the system named is HUVECs. The data set can be described thus: Cell viability MTS, HUVEC. It is filed as cell-based, human. The settings on record: 24 h. On the procedure:
Chronic lymphocytic leukaemia-derived MEC-1 cells were cultured in suspension using complete RPMI (EuroClone), supplemented with 100 U ml^−1 penicillin (Sigma), 100 μg ml^−1 streptomycin (Sigma), 2 mM L-glutamine and 10% (v/v) foetal bovine serum (FBS, EuroClone). A549 human lung carcinoma epithelial cells and immortalized human keratinocytes (HaCaT) were grown in adhesion in complete high glucose Dulbecco’s MEM (DMEM, EuroClone) supplemented with 100 U ml^−1 penicillin (Sigma), […] streptomycin (Sigma), 2 mM L-glutamine and 10% (v/v) of FBS. […] All cell lines were counted in a Bürker chamber and diluted to the desired working concentrations.
Cell viability was evaluated by tetrazolium salt (MTT, or MTS for HUVECs only) tests. […] The next day, absorbance was measured at 570 nm using a Nanoquant Infinite-M200Pro plate reader (Tecan, Switzerland).
HUVECs, 7500 cells per well, were seeded in HESFM with 10% FBS in a 96-well flat-bottomed microtitre plate (EuroClone SpA, Italy). […] The plate was then incubated for 2 h at 37°C in a humidified 5% CO2 atmosphere, and the absorbance was measured at 490 nm, using a spectrophotometer (PowerWaveX, Bio-Tek Instruments). The cytotoxicity was calculated by comparing the absorbance of peptide-treated samples with that of the untreated control and expressed in percentage of vitality. […]

Another data set deals with a human cell line. The settings on record: ref [20]; cited from earlier work. The text has this: In a previous work, we systematically modified Bac7(1-16), an active N-terminal fragment of the natural PrAMP full-length Bac7 [19], to identify the amino acid residues essential for inhibiting protein synthesis, with the goal to discover new derivatives with improved antimicrobial activity. […] B7-005 ...

For orientation: IC50 means the concentration needed to halve the response being measured. Regarding `CC[C@H](C)[C@H](NC(=O)[C@H](CCCNC(=N)N)NC(=O)[C@@H](N)Cc1c[nH]c2ccccc12)C(=O)N[C@@H](CCCNC(=N)N)C(=O)N[C@@H](CCCNC(=N)N)C(=O)N[C@@H](CCCNC(=N)N)C(=O)N[C@@H](Cc1c[nH]c2ccccc12)C(=O)N1CCC[C@H]1C(=O)N[C@@H](CCCNC(=N)N)C(=O)N[C@@H](CC(C)C)C(=O)N1CCC[C@H]1C(=O)N[C@@H](CCCNC(=N)N)C(=O)N1CCC[C@H]1C(=O)N[C@@H](CCCNC(=N)N)C(=O)N[C@@H](Cc1c[nH]c2ccccc12)C(=O)N[C@@H](CCCNC(=N)N)C(=O)O` [B7-005] (H-WRIRRRWPRLPRPRWR-OH), the “MIC of B7-005” value came out at 1 µM in the data set on E. coli ATCC 25922 (0% human serum in MH medium, visual, 18 h at 37°C, mode of n = 3); 2 µM in the data set on E. coli ATCC 25922 (20% (v/v) human serum in MH medium, 18 h at 37°C, mode of n = 3); 2 µM in the data set on E. coli ATCC 25922 (20–30% (v/v) human serum); 2 µM with E. coli ATCC 25922 (25% (v/v) human serum in MH medium, 18 h at 37°C, mode of n = 3); 2 µM in the data set with E. coli ATCC 25922 (30% (v/v) human serum in MH medium, 18 h at 37°C, mode of n = 3); 4 µM with E. coli ATCC 25922 (40% (v/v) human serum in MH medium, 18 h at 37°C, mode of n = 3). In addition, the “MIC of B7-005” value in the data set on E. coli ATCC 25922 (50% (v/v) human serum in MH medium, 18 h at 37°C, mode of n = 3) amounted to 8 µM. Besides, in the data set with HUVECs, the “concentration up to which there were no detectable effects” value is listed as no less than 128 µM. Moreover, in the data set with HUVECs (MTS, HESFM + 10% FBS, n ≥ 9), the IC50 was roughly 256 µM. Further, the “cytotoxicity relative to Bac7(1-16)” value in the data set with a human cell line is “did not increase cytotoxicity relative to Bac7(1-16)”.
